Data taken from patent US12558366B2, “Bacterial DNA gyrase inhibitors and methods of use thereof” (THE FLORIDA INTERNATIONAL UNIVERSITY BOARD OF TRUSTEES, priority 2021, dated 2026).
≈ marks a conversion by molar mass, not a printed value.

Legend:
E. coli (ATCC 25922) = test: Minimum inhibitory concentration, E. coli; assay type: cell-based; settings: for MIC: Escherichia coli, ATCC25922, read-out: Minimum Inhibitory Concentration E. coli
Description: (§1) Antibacterial minimum inhibitory concentrations (MICs) were obtained from three independent experiments using broth microdilution methods in 96-well plates according to Clinical and Laboratory Standards Institute guidelines. Cells were culture from singles colonies in MHIIB medium for 24 h at 37° C. in agitation (200 RPM). The cultures were then diluted using the same media to reach an OD600 of 0.1. Then, 50 μL of the diluted cultures were added to the plates holding 50 μL of serially diluted compounds in MHIIB. The plates were incubated at 37° C. for 20 h. The starting inoculum was fixated to 10^5 colony-forming units per ml.

E. coli imp = test: microbe, parasite or virus in culture; assay type: cell-based; settings: for MIC: Escherichia coli, read-out: Minimum Inhibitory Concentration E. coli imp
Description: as §1

B. subtilis (ATCC 6633) = test: Minimum inhibitory concentration, B. subtilis; assay type: cell-based; settings: for MIC: Bacillus subtilis, ATCC6633, Tables 3a-3c
Description: as §1

Mtb = Mtb inhibition (antibacterial activity); assay type: cell-based, Mycobacterium tuberculosis; parameters: % Mtb inhibition: concentration or dose not given beside the values; settings: for % Mtb inhibition: Table 5
S. aureus (ATCC 14775) = test: Minimum inhibitory concentration, S. aureus; assay type: cell-based
Description: as §1

MRSA (ATCC BAA44) = test: microbe, parasite or virus in culture; assay type: cell-based, S. aureus
Description: as §1

DNA = DNA binding, intercalation and photo-induced crosslinking
E. coli DNA gyrase [1] = target: T1, E. coli DNA gyrase (Escherichia coli, UniProt P0AES4+P0AES6); test: Agarose gel-based DNA gyrase inhibition assays; assay type: biochemical
T1 sequence (P0AES4 whole entry, one chain of several): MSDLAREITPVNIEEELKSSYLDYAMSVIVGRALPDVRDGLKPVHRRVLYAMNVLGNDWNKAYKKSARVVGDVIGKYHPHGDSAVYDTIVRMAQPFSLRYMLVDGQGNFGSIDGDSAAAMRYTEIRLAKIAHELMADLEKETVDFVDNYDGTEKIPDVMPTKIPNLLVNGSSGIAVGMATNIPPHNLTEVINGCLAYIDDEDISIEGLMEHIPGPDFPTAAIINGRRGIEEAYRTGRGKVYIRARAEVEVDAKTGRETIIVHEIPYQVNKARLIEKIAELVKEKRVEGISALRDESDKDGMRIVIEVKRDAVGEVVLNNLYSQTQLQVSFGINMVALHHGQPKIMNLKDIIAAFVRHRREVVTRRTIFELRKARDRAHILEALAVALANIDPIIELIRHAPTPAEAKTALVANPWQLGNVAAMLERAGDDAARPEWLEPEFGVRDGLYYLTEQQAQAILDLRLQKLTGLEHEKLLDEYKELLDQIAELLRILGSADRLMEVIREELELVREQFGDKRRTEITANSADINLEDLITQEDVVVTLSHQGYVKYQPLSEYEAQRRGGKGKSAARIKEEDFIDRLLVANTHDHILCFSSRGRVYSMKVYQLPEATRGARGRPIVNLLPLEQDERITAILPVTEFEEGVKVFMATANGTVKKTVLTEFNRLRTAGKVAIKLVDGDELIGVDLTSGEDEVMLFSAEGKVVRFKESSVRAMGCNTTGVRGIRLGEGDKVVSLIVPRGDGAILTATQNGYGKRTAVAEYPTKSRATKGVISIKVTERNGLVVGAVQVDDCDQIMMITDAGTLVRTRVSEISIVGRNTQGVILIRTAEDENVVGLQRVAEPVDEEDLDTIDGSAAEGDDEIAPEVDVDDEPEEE
Description: 100 ng of DNA gyrase was used to supercoil the rx pAB1 in the presence of different concentrations of a gyrase inhibitor. […] Samples were analyzed by electrophoresis in 1% w/v agarose gels followed by ethidium bromide staining and photographed under UV light.

E. coli DNA gyrase [2] = target: T1, E. coli DNA gyrase; test: E. coli DNA gyrase ATPase assays; assay type: biochemical
Description: E. coli DNA gyrase ATPase assays were performed in 60 μl, of 1×gyrase ATPase buffer (10 mM Tris.HCl (pH 7.5), 0.2 mM EDTA, 1 mM magnesium chloride, 1 mM DTT, and 2% (w/v) glycerol) containing 50 nM E. coli DNA gyrase, 200 ng rx pAB1, 0.8 mM Phosphoenol pyruvate, 1.2 units of Pyruvate kinase, 1.7 units of lactate dehydrogenase, and 0.4 mM of NADH at 37° C. After the reaction mixtures are incubated on ice for 5 minutes, 2 mM of ATP is added to initiate the reaction. Absorbance at OD340 nm is monitored for up to 30 minutes at 37° C. in a spectrophotometer.

Mtb DNA gyrase = Mtb DNA gyrase (Mycobacterium tuberculosis, UniProt P9WG45+P9WG47); test: Mtb DNA gyrase inhibition; assay type: biochemical
Chain of Mtb DNA gyrase (P9WG45 whole entry): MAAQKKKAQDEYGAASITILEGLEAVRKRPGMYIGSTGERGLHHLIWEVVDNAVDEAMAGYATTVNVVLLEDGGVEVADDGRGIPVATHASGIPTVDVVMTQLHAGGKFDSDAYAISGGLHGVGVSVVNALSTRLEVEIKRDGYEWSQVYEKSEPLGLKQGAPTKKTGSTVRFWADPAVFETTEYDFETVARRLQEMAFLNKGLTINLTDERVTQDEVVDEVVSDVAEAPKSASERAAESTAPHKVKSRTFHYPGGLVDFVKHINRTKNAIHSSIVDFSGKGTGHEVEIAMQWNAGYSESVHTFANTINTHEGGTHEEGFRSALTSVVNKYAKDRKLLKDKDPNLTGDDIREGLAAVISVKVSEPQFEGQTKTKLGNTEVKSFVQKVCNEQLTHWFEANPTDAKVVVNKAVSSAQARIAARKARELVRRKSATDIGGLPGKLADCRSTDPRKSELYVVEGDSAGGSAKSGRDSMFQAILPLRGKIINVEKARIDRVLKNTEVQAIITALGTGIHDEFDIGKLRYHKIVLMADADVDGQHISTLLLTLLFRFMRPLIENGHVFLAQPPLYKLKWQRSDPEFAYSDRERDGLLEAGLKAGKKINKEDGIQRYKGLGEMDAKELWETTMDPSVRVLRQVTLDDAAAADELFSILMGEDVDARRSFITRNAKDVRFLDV
Chain of Mtb DNA gyrase (P9WG47 whole entry): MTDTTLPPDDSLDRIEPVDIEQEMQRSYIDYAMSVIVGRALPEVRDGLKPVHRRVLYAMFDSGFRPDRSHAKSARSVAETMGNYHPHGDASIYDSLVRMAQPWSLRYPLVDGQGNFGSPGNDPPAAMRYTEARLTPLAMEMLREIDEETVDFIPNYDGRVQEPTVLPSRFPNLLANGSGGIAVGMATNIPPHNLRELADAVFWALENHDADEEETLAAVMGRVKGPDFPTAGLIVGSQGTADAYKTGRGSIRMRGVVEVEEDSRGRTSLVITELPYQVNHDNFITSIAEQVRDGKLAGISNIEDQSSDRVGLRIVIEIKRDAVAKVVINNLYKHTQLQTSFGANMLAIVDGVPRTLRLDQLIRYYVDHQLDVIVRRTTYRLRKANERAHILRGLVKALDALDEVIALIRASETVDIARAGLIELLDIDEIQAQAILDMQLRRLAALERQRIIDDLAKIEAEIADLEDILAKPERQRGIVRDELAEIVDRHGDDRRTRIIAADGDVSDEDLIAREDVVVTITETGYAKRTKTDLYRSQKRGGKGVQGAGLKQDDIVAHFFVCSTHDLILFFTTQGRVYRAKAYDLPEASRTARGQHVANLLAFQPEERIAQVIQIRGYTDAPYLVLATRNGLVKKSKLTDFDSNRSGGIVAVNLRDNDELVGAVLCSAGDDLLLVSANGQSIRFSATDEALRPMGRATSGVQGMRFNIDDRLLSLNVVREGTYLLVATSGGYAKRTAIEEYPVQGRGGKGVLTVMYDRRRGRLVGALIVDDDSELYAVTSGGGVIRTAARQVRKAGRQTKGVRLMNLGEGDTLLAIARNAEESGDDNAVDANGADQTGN

J774 = test: Cytotoxicity in J774 cells; assay type: cell-based
HepG2 = test: Cytotoxicity in HepG2 cells; assay type: cell-based
E. coli DNA gyrase [3] = target: T1, E. coli DNA gyrase; test: E. coli DNA gyrase inhibition (agarose gel-based and/or SDFQ-based, not specified per value); assay type: biochemical

Cc1c(CC(=O)O)c(=O)oc2c(C)c3occ(-c4ccc(Br)cc4)c3cc12 [Compound 117]
MIC (E. coli (ATCC 25922)): > 200 µM
MIC (E. coli imp): > 200 µM
MIC (B. subtilis (ATCC 6633)): > 200 µM
% Mtb inhibition (Mtb): 24.7%

Biphenyl gallate
MIC (μg/ml) E. coli ATCC 25922 (E. coli (ATCC 25922); Table 7): 517.29 µg/mL
MIC (μg/ml) E. coli imp (E. coli imp; Table 7): 36.43 µg/mL
MIC (μg/ml) S. aureus ATCC 14775 (S. aureus (ATCC 14775); Table 7): 16 µg/mL
MIC (μg/ml) S. aureus (MRSA) ATCC BAA44 (MRSA (ATCC BAA44); Table 7): 16 µg/mL
MIC (μg/ml) B. subtilis ATCC 6633 (B. subtilis (ATCC 6633); Table 7): 16 µg/mL

CSC1SC2C(=O)N(C)C(C(C)C)C(=O)OCC(NC(=O)c3cnc4ccccc4n3)C(=O)NC(C)C(=O)N(C)C1C(=O)N(C)C(C(C)C)C(=O)OCC(NC(=O)c1cnc3ccccc3n1)C(=O)NC(C)C(=O)N2C (stereo not drawn) [Compound 258]
DNA intercalator (DNA): DNA intercalators

CCOC(=O)c1cc2c(=Cc3ccc(N(C)C)cc3)c3ccccc3n2[n+]1C.O=S(=O)([O-])C(F)(F)F [Compound 239]
DNA intercalator (DNA): DNA intercalators

O=C1Nc2ccc(Br)cc2C1=NNc1ccc(C(=O)O)cc1 [Compound 111]
inhibition of E. coli DNA gyrase activities (E. coli DNA gyrase [1]; 50 μM of compounds): completely inhibited
MIC (B. subtilis (ATCC 6633)): 100 µM (≈ 36 µg/mL)

O=C(Nc1cccc(C2=NCCN2)c1)Nc1cccc(C2=NCCN2)c1 [Compound 79]
inhibition of E. coli DNA gyrase activities (E. coli DNA gyrase [1]; 200 μM of compounds): completely inhibited
MIC (E. coli imp): 50 µM (≈ 17.4 µg/mL)

COc1ccc2c(c1)/c(=C\c1ccc(N(C)C)cc1)c1cc(-c3ccccc3)[n+](C)n12.O=S(=O)([O-])C(F)(F)F [Compound 237]
DNA intercalator (DNA): DNA intercalators

CNC(=O)[C@H]1O[C@@H](n2cnc3c(NCc4cccc(I)c4)ncnc32)[C@H](O)[C@@H]1O [IB-MECA]
inhibition of the ATPase activities of E. coli DNA gyrase (E. coli DNA gyrase [2]): inhibition of the ATPase activities
mode of inhibition (ATP competitive) (E. coli DNA gyrase [2]): ATP competitive inhibitors
inhibition of Mtb DNA gyrase activities (Mtb DNA gyrase): did not inhibit

Cc1c(CCC(=O)O)c(=O)oc2c(C)c3occ(-c4ccc(F)cc4)c3cc12 [Compound 123]
MIC (E. coli (ATCC 25922)): > 200 µM
MIC (E. coli imp): > 200 µM
% Mtb inhibition (Mtb): 31.8%

Cc1c(CCC(=O)O)c(=O)oc2c(C)c3occ(-c4ccc5ccccc5c4)c3cc12 [Compound 124]
MIC (E. coli (ATCC 25922)): > 200 µM
MIC (E. coli imp): > 200 µM
activity against Mtb (Mtb): most active for Mtb
cytotoxicity (J774; J774, 200 μM): no cytotoxicity evident
cytotoxicity (HepG2; HepG2, 200 μM): no cytotoxicity evident

Nc1c2ccccc2nc2ccccc12 [Compound 247]
DNA intercalator (DNA): DNA intercalators

Nc1ccc2cc3ccc(N)cc3nc2c1 [Compound 246]
DNA intercalator (DNA): DNA intercalators

CN(C)c1ccc2cc3ccc(N(C)C)cc3nc2c1 [Compound 249]
DNA intercalator (DNA): DNA intercalators

Sc1cccc2c(S)cccc12 [NSC229]
% inhibition (20 μM) (Mtb; 20 μM, Table 6): 99.3%
IC50 (J774; highest concentration 200 μM): > 200 µM
IC50 (HepG2; highest concentration 200 μM): > 200 µM

Brc1ccc2c(c1)-c1ccccc1C1=NCCN12 [Compound 217]
DNA intercalator (DNA): DNA intercalators

Cc1c(C)c2cc3c(-c4ccc(Br)cc4)coc3c(C)c2oc1=O [Compound 118]
inhibition of E. coli DNA gyrase activities (E. coli DNA gyrase [3]): All psoralen derivatives inhibited E. coli and Mtb DNA gyrase activities except compounds 118 and 122
inhibition of Mtb DNA gyrase activities (Mtb DNA gyrase): All psoralen derivatives inhibited E. coli and Mtb DNA gyrase activities except compounds 118 and 122
MIC (S. aureus (ATCC 14775); Staphylococcus aureus, ATCC14775, read-out: Minimum Inhibitory Concentration S. aureus): 200 µM (≈ 76.6 µg/mL)
MIC (MRSA (ATCC BAA44); Staphylococcus aureus, read-out: Minimum Inhibitory Concentration S. aureus MRSA): 200 µM (≈ 76.6 µg/mL)
% Mtb inhibition (Mtb): 21.8%
